Laboratory results taken from patent US20090156496A1, “METHODS AND COMPOSITIONS FOR TREATING AND PREVENTING PERIPHERAL NERVE DAMAGE” (CHILDREN'S MEDICAL CENTER CORPORATION, INC., priority 2006, published 2009).
“Also recorded” adds a separate entry of the source. Numbered stars: 1 amine (or outer) side, 2 acyl side, 3 side chain; on linkers, the order of the positions; unused ones are H or OH. Bridge positions count the residues as written; N and C are the ends. Square brackets hold non-standard residues; d marks the D form. Peptide text beside a SMILES is read from it. I, II: the chains in the order shown. Actinocin(9to1) = Cc1c2oc3c(C)ccc(C(=O)[*:1])c3nc-2c(C(=O)[*:2])c(N)c1=O; NMeV = CN[C@H](C(=O)O)C(C)C; Sar = CNCC(=O)O

Experiments:
[1] = tested on: RGCs; test: axon outgrowth in primary adult retinal cultures; type: cell-based, rat; details: for effect of inhibitor on oncomodulin-induced axon outgrowth: PD98059 5 μM, LY 294002 20 μM, Jaki 20 nM, KN92 10 μM, ActD 8 nM
Method: Protein A beads (Sigma) were incubated with either rabbit anti-OM antiserum (Swant) or normal rabbit serum (Invitrogen) for 16 h at 4° C. After extensive rinsing, beads with adsorbed IgGs were mixed with MCM (1 ml 10× concentrate, collected 8 h after zymosan treatment) for 24 h at 4° C. and then pelleted down by centrifugation. We tested 5 μl of the supernatants or untreated MCM for oncomodulin by western blotting. Bioactivity of immune-depleted and control MCM was tested in dissociated RGC cultures as described below at a 1:4 dilution, a concentration found to give a near-maximal response.
(§1) Adult rat retinal cultures were prepared as described^21. […] One week later, retinas were dissected, dissociated, and the cells plated in defined, serum-free medium. Axon growth (% RGCs extending axons ≧30 μm, ≧70 μm or ≧140 μm in length) was evaluated after 3 d in quadruplicate samples in a blinded fashion. All experiments were repeated at least three separate times. In some instances, cells were immunostained with GAP-43 antibody (1:500, Chemicon).

[2] = tested on: mature RGCs; details: previously reported; cited from earlier work
[3] = tested on: DRG neurons; test: neurite outgrowth of DRG neurons cultured after intraganglionic injection in vivo; type: cell-based, rat; details: CSPG substrate
Method: L4-L5 DRGs from adult male Sprague-Dawley rats (250-300 g) were injected with 5 μl of saline or oncomodulin (200 ng μl^−1). After 7 d, injected ganglia were dissected and single-cell suspensions were prepared as described^50. Cells were cultured on laminin (Sigma) with or without CSPGs (Chemicon) for 20 h or 40 h. In some cases, chondroitinase ABC (0.5 U ml^−1, Seikagaku) was added. Neurite outgrowth was visualized by Tuj1 antibody to class III β-tubulin (1:5,000, Babco) and quantified in quadruplicate samples by a blinded observer. In other studies, L4-L5 DRG neurons were cultured in the presence of absence of oncomodulin, mannose and/or forskolin in RPMI-1640 to limit spontaneous outgrowth. Cells were fixed and immunostained after 3 d and evaluated for outgrowth.

[4] = tested on: RGCs; test: RGC survival in primary retinal cultures; type: cell-based, rat
Method: as §1

Row | Compound | effect of inhibitor on oncomodulin-induced axon outgrowth ([1]; KN93 10 μM) | axon extension of mature RGCs in culture [2] | other results
1 | CC(C)(C)c1nc2c3cc[nH]c(=O)c3c3cc(F)ccc3c2[nH]1 [Jaki, reference compound] | did not diminish oncomodulin's activity |  | 
2 | COc1cccc(-c2cc(=O)c3ccccc3o2)c1N [PD98059, reference compound] | not blocked; also recorded: enhanced outgrowth slightly |  | 
3 | interleukin-6 |  | do not stimulate mature RGCs to extend axons | 
4 | chondroitinase ABC |  |  | DRG neurite outgrowth on nonpermissive substrate [3]: promoted some outgrowth
5 | epidermal growth factor |  | do not stimulate mature RGCs to extend axons | 
6 | calmodulin |  |  | axon outgrowth bioassay, Ca2+-binding proteins ([1]; 15 nM or tenfold higher concentration, forskolin and mannose present): inactive
7 | fibroblast growth factor-2 |  | do not stimulate mature RGCs to extend axons | 
8 | Cc1c2oc3c(C)ccc(C(=O)N[C@@H]4C(=O)N[C@H](C(C)C)C(=O)N5CCC[C@H]5C(=O)N(C)CC(=O)N(C)[C@@H](C(C)C)C(=O)O[C@@H]4C)c3nc-2c(C(=O)N[C@@H]2C(=O)N[C@H](C(C)C)C(=O)N3CCC[C@H]3C(=O)N(C)CC(=O)N(C)[C@@H](C(C)C)C(=O)O[C@@H]2C)c(N)c1=O [actinomycin D, reference compound] (I: T[dV]P[Sar][NMeV] / II: T[dV]P[Sar][NMeV]; ester I:1-I:C, II:1-II:C; linker I:N-II:N via Actinocin(9to1)) | blocked the effects of oncomodulin on outgrowth |  | RGC survival ([4]; retinal culture): without altering RGC survival
9 | COc1ccc(S(=O)(=O)N(CCO)c2ccccc2CN(C)C/C=C/c2ccc(Cl)cc2)cc1 [KN93, reference compound] | blocked the effect of oncomodulin fully |  | effect of inhibitor on outgrowth induced by forskolin plus mannose ([1]; KN93 10 μM, three inhibitors combined): without altering the effect of mannose and forskolin
10 | COc1ccc(S(=O)(=O)Nc2ccccc2CN(C)C/C=C/c2ccc(Cl)cc2)cc1 [KN92, reference compound] | did not substantially diminish outgrowth |  | 
11 | CCCC(=O)Nc1ncnc2c1ncn2[C@@H]1O[C@@H]2COP(=O)(O)O[C@H]2[C@H]1OC(=O)CCC [dibutyryl cAMP, reference compound] |  |  | effect on oncomodulin-induced outgrowth ([1]; [dB-cAMP] above 250 μM): further increases diminished outgrowth; effect on oncomodulin-induced outgrowth ([1]; [dB-cAMP] up to 250 μM): enhanced the effect of oncomodulin
12 | Lysozyme |  |  | diminished RGC survival ([4]; data not shown): ~25%; axon outgrowth from RGCs ([1]; data not shown): did not enhance outgrowth
13 | nerve growth factor |  | do not stimulate mature RGCs to extend axons | 
